{"source": "patent US20260009065A1", "about": "“COMPOSITIONS FOR EXPOSING FILM-FORMING MICROBES AND METHODS FOR USE OF THE COMPOSITIONS” (Guild Associates Inc., priority 2022, published 2026)", "key": {"S. proteamaculans [1]": {"tested_on": "S. proteamaculans", "experiment": "Treatment Toxicity (ATP luminescence of cell free supernatant, BacTiterGlo), biofilm", "type": "cell-based, Serratia proteamaculans", "conditions": "for Treatment Toxicity % Ctr: Biofilm Lifestyle", "method": "These enzyme combinations were tested for bacterial cell release from enzyme-treated biofilms. Post-enzyme exposure sample overlying solutions were collected and centrifuged to collect bacterial cells released by the enzyme treatment. The supernatants were removed, and the cell pellet resuspended in PBS and ATP luminescence was determined and compared to non-enzyme treated controls. Preferred enzyme pairs were expected to release more cells than untreated controls. Additionally, because maintaining extracted microbe viability was important, the ATP luminescence of the post-centrifugation cell free supernatants were also determined and compared to untreated controls. ATP is normally sequestered inside of cells so the presence of substantially more ATP in the cell free supernatant of enzyme treated biofilms indicates the enzyme treatment may have had toxic effects on the treated bacteria.\n(§1) Treatment Toxicity: To measure cell toxicity the ATP luminescence of the post-centrifugation cell free supernatants were also determined using the BacTiterGlo Microbial Cell Viability Assay (Promega) and compared to untreated controls to give a percent control value shown. Values over 100% are viewed negatively as potential toxic effects of an enzyme treatment.\n(§2) With both growth lifestyles a clear dose response curve is evident."}, "S. proteamaculans [2]": {"tested_on": "S. proteamaculans", "experiment": "Treatment Toxicity Assay (ATP luminescence), planktonic lifestyle", "type": "cell-based, Serratia proteamaculans", "method": "as §1, §2"}, "S. proteamaculans [3]": {"tested_on": "S. proteamaculans", "experiment": "Sanitizing agent treatment, single species biofilm controls in multi-species biofilm testing", "type": "cell-based, Serratia proteamaculans", "conditions": "100 ug/ml BZAC", "method": "Multi-species biofilms were screened by treatment with a sanitizing agent to identify species combinations that show heightened resistance. The multi-species biofilm with the most resistance to the sanitizer was used to screen three (3) enzyme combinations for anti-biofilm and bacterial release testing of the six (6) top performing two (2) enzyme combinations tested earlier. Non-nuclease enzymes were tested at two (2) different concentrations. Each three-enzyme combination was also compared to each of the two-enzyme combination core pair to try to identify synergy of the three-enzyme combination over the two-enzyme combination.\nas §2"}, "E. coli": {"tested_on": "E. coli", "experiment": "Crystal Violet assay, two-enzyme treatment of mono-species biofilm", "type": "cell-based, Escherechia coli O157:H7", "conditions": "enzyme combined w/nuclease; Crystal Violet assay vs untreated control", "method": "(§3) Applicant's initial testing was carried out with combinations of two (2) enzymes rather than a single enzyme with a nuclease present in all enzyme combinations. DNase I, a specific commonly utilized DNA nuclease, was selected as a universal enzyme. Both DNase I and other DNA nucleases were compared and formulated to have equivalent activity and then used interchangeably in the research. Nuclease was tested against all seven (7) species at three (3) concentrations and then the most overall effective concentration was used in two (2) enzyme testing. Initial two (2) enzyme testing utilized traditional mono-species biofilms of the 7 species in Table 1. The nuclease was also always tested alone in all experiments allowing some determination of its contribution to the resulting antibiofilm activity. Non-nuclease enzymes were tested at 3 concentrations while the nuclease concentration was held constant. Anti-biofilm activity was measured using the Crystal Violet assay, an easy and ubiquitous assay used for measuring changes in biofilm magnitude in the biofilm research industry.\n(§4) The results of the initial two enzyme combination testing using the Crystal Violet assay is given in Table 3 and are given as a percent of the untreated control Crystal Violet signal."}, "S. enterica": {"tested_on": "S. enterica", "experiment": "Crystal Violet assay, two-enzyme treatment of mono-species biofilm", "type": "cell-based, Salmonella enterica", "conditions": "enzyme combined w/nuclease; Crystal Violet assay vs untreated control", "method": "as §3, §4"}, "L. monocytogenes": {"tested_on": "L. monocytogenes", "experiment": "Crystal Violet assay, two-enzyme treatment of mono-species biofilm", "type": "cell-based, Listeria monocytogenes", "conditions": "enzyme combined w/nuclease; Crystal Violet assay vs untreated control", "method": "as §3, §4"}, "[4]": {"tested_on": "S. proteamaculans biofilms", "experiment": "Crystal Violet assay, enzyme treatment of single species biofilm", "type": "cell-based, Serratia proteamaculans", "conditions": "enzyme combined w/nuclease; Crystal Violet assay vs untreated control", "method": "as §3\nTherefore, three-enzyme combinations were also tested against single species biofilms of this species.\nas §4"}, "A. JohnsonII": {"tested_on": "A. JohnsonII", "experiment": "Crystal Violet assay, two-enzyme treatment of mono-species biofilm", "type": "cell-based, Acinetobacter johnsonii", "conditions": "enzyme combined w/nuclease; Crystal Violet assay vs untreated control", "method": "as §3, §4"}, "L. plantarum": {"tested_on": "L. plantarum", "experiment": "Crystal Violet assay, two-enzyme treatment of mono-species biofilm", "type": "cell-based, Lactobacillus plantarum", "conditions": "enzyme combined w/nuclease; Crystal Violet assay vs untreated control", "method": "as §3, §4"}, "7-species": {"tested_on": "7-species", "experiment": "Crystal Violet assay, average over the 7 mono-species biofilms", "type": "cell-based", "conditions": "enzyme combined w/nuclease; average over species tested", "method": "as §3, §4"}}}
{"substance": "Benzalkonium chloride [BZAC]", "values": [{"measurement": "Treatment Toxicity % Ctr", "setting": "S. proteamaculans [1]; 1 μg/ml BZAC", "result": 1250.5, "unit": "% Ctr"}, {"measurement": "Treatment Toxicity % Ctr", "setting": "S. proteamaculans [1]; 10 μg/ml BZAC", "result": 150.8, "unit": "% Ctr"}, {"measurement": "Treatment Toxicity % Ctr", "setting": "S. proteamaculans [1]; 100 μg/ml BZAC", "result": 793.3, "unit": "% Ctr"}, {"measurement": "cell-free ATP luminescence relative to untreated control biofilms", "setting": "S. proteamaculans [1]; functionally active concentrations, a representative species", "result": "over twelve-fold higher"}, {"measurement": "Treatment Toxicity % Ctr", "setting": "S. proteamaculans [2]; 1 μg/ml BZAC", "result": 859.3, "unit": "% Ctr"}, {"measurement": "Treatment Toxicity % Ctr", "setting": "S. proteamaculans [2]; 10 μg/ml BZAC", "result": 284.9, "unit": "% Ctr"}, {"measurement": "Treatment Toxicity % Ctr", "setting": "S. proteamaculans [2]; 100 μg/ml BZAC", "result": 724.9, "unit": "% Ctr"}, {"measurement": "biofilm reduction by sanitizer treatment", "setting": "S. proteamaculans [3]", "result": "consistently show biofilm reduction"}]}
{"substance": "Cellulase", "values": [{"measurement": "Biofilm Reduction Due to Enzyme Cocktail Treatment, E. coli", "setting": "E. coli", "result": 0, "unit": "%"}, {"measurement": "Biofilm Reduction Due to Enzyme Cocktail Treatment, S. enterica", "setting": "S. enterica", "result": 10, "unit": "%"}, {"measurement": "Biofilm Reduction Due to Enzyme Cocktail Treatment, L. monocytogenes", "setting": "L. monocytogenes", "result": 0, "unit": "%"}, {"measurement": "Biofilm Reduction Due to Enzyme Cocktail Treatment, S. proteamaculens", "setting": "[4]", "result": 0, "unit": "%"}, {"measurement": "Biofilm Reduction Due to Enzyme Cocktail Treatment, A. JohnsonII", "setting": "A. JohnsonII", "result": 22.4, "unit": "%^"}, {"measurement": "Biofilm Reduction Due to Enzyme Cocktail Treatment, L. plantarum", "setting": "L. plantarum", "result": 0, "unit": "%"}, {"measurement": "Biofilm Reduction Due to Enzyme Cocktail Treatment, 7-species average", "setting": "7-species", "result": 5, "unit": "%"}]}
